Laboratory results published in the Kinase Knowledgebase extract (Sharma et al. 2016).
Where “and” joins values, the source holds several entries; their conditions need not be identical. Identical values can stand only once.

Molecular target: PIK3CB;PIK3CA (UniProt P42338)
Experiment: PI3-Kinase alpha/beta Inhibition

Row | Compound | IC50
1 | Cc1cccn2c(=O)cc(N3CCOCC3)nc12 | 11.1 µM
2 | Cc1cc(NCC2CCNCC2)c2nc(N3CCOCC3)cc(=O)n2c1 | 1 µM
3 | Cc1cc(Cl)ccc1Oc1cccc2c(=O)cc(N3CCOCC3)[nH]c12 | 1 µM
4 | COC(=O)c1cccc(Oc2cccc3c(=O)cc(N4CCOCC4)[nH]c23)c1 | 0.5 µM
5 | O=c1cc(N2CCOCC2)oc2cc(/C=C/c3ccccc3)ccc12 | 10 µM
6 | O=c1cc(N2CCOCC2)oc2c(Oc3ccccc3)cccc12 | 0.1 µM and 0.05 µM
7 | O=c1cc(N2CCOCC2)oc2c(O)cccc12 | 25 µM
8 | Cc1ccccc1-c1cccc2c(=O)cc(N3CCOCC3)oc12 | 2 µM
9 | COc1ccccc1CNc1cc(C)cn2c(=O)cc(N3CCOCC3)nc12 | 0.05 µM
10 | Cc1cc(CCc2ccncc2)c2nc(N3CCOCC3)cc(=O)n2c1 | 1 µM
11 | O=c1cc(N2CCOCC2)[nH]c2c(Sc3ccccc3)cccc12 | 0.05 µM
12 | O=c1cc(N2CCOCC2)[nH]c2c(Oc3ccccc3F)cccc12 | 0.15 µM
13 | O=c1cc(N2CCOCC2)nc2c(Cc3ccccc3)cccn12 | 1.5 µM
14 | Cc1cc(Nc2ccccc2O)c2nc(N3CCOCC3)cc(=O)n2c1 | 0.2 µM
15 | Cc1ccc(S(=O)(=O)Oc2cccc3c(=O)cc(N4CCOCC4)[nH]c23)cc1 | 1 µM
16 | Cc1cc(NCc2ccc(Cl)cc2)c2nc(N3CCOCC3)cc(=O)n2c1 | 1 µM

Row | Compound | IC50
17 | Cc1ccc(Oc2cccc3c(=O)cc(N4CCOCC4)[nH]c23)cc1 | 0.5 µM
18 | Cc1cc(Nc2ccc(F)cc2C)c2nc(N3CCOCC3)cc(=O)n2c1 | 0.2 µM
19 | Cc1cc(NCc2ccccc2Cl)c2nc(N3CCOCC3)cc(=O)n2c1 | 0.05 µM
20 | Cc1cc(Nc2ccc(O)cc2)c2nc(N3CCOCC3)cc(=O)n2c1 | 0.1 µM
21 | Cc1cc(N[C@@H](C)c2ccccc2)c2nc(N3CCOCC3)cc(=O)n2c1 | 1 µM
22 | O=c1cc(N2CCOCC2)[nH]c2c(Oc3ccc(F)cc3)cccc12 | 0.05 µM
23 | Cc1cc(Nc2ncccc2C)c2nc(N3CCOCC3)cc(=O)n2c1 | 10 µM
24 | COc1cccc(COc2cccn3c(=O)cc(N4CCOCC4)nc23)c1 | 1 µM
25 | O=c1cc(N2CCOCC2)[nH]c2c(Cc3ccccc3)cccc12 | 2 µM
26 | Cc1c(OCc2ccccc2)ccc2c(=O)cc(N3CCOCC3)oc12 | 10 µM
27 | Cc1ccccc1Oc1cccc2c(=O)cc(N3CCOCC3)[nH]c12 | 0.05 µM
28 | O=c1cc(N2CCOCC2)oc2c(OCc3cccnc3)cccc12 | 1 µM
29 | Cc1cc(Oc2cccc3c(=O)cc(N4CCOCC4)oc23)ccc1F | 0.1 to 0.15 µM
30 | O=c1cc(N2CCOCC2)nc2c(OCc3cccnc3)cccn12 | 10 µM
31 | O=c1cc(N2CCOCC2)nc2c(-c3ccccc3)cccn12 | 10.5 µM
32 | Cc1cc(-c2ccccc2C(F)(F)F)c2nc(N3CCOCC3)cc(=O)n2c1 | 2 µM

More lines, now with the values ahead:

Row | IC50 | Compound
33 | 0.5 µM | Cc1cc(NCc2ccccn2)c2nc(N3CCOCC3)cc(=O)n2c1
34 | 0.5 µM | O=c1cc(N2CCOCC2)nc2c(OCc3ccccc3)cccn12
35 | 1 µM | Cc1cc(Nc2ccc(Cl)cc2)c2nc(N3CCOCC3)cc(=O)n2c1
36 | 0.1 µM | O=c1cc(N2CCOCC2)oc2c(Cc3ccccc3)cccc12
37 | 2 µM | O=c1cc(N2CCOCC2)oc2cc(OCc3cccnc3)ccc12
38 | 0.2 µM | O=c1cc(N2CCOCC2)oc2c(-c3ccccc3C(F)(F)F)cccc12
39 | 0.5 µM | Cc1cc(NCc2ccncc2)c2nc(N3CCOCC3)cc(=O)n2c1
40 | 0.5 µM | O=C(O)c1cccc(Oc2cccc3c(=O)cc(N4CCOCC4)[nH]c23)c1
41 | 20 µM | Cc1cc(C2CCN(C)C2=O)c2nc(N3CCOCC3)cc(=O)n2c1 (configuration not stated)
42 | 2 µM | Cc1cc(Nc2ccccc2OCCN(C)C)c2nc(N3CCOCC3)cc(=O)n2c1
43 | 7.5 µM | CC(C)(C)c1ccc(COc2cccn3c(=O)cc(N4CCOCC4)nc23)cc1
44 | 5 µM and 10 µM and 2 µM | Cc1c(Oc2ccccc2)ccc2c(=O)cc(N3CCOCC3)oc12
45 | 0.1 µM | Cc1cc(Nc2ccc(O)cc2C)c2nc(N3CCOCC3)cc(=O)n2c1
46 | 1 µM | Cc1cc(Nc2ccncc2)c2nc(N3CCOCC3)cc(=O)n2c1
47 | 0.02 µM | Cc1cc(F)ccc1Oc1cccc2c(=O)cc(N3CCOCC3)[nH]c12
48 | 0.05 µM | Cc1cccc(Oc2cccc3c(=O)cc(N4CCOCC4)[nH]c23)c1
49 | 5 µM | Cc1cc(Nc2ccccc2C(F)(F)F)c2nc(N3CCOCC3)cc(=O)n2c1

Row | IC50 | Compound
50 | 0.1 µM | O=c1cc(N2CCOCC2)[nH]c2c(Oc3ccccc3)cccc12
51 | 0.75 µM | Cc1cc(Oc2cccn3c(=O)cc(N4CCOCC4)nc23)ccc1F
52 | 1 µM | Cc1cc(-c2ccsc2)c2nc(N3CCOCC3)cc(=O)n2c1
53 | 0.1 µM | O=c1cc(N2CCOCC2)[nH]c2c(OCc3ccccc3)cccc12
54 | 0.5 µM | O=c1cc(N2CCOCC2)oc2c(-c3ccccc3Cl)cccc12
55 | 0.5 µM | O=c1cc(N2CCOCC2)nc2c(OCc3cccc(Cl)c3)cccn12
56 | 10 µM | O=c1cc(N2CCOCC2)nc2c(OCc3ccccn3)cccn12
57 | 1 µM | O=c1cc(N2CCOCC2)oc2c(-c3ccc(F)cc3)cccc12
58 | 0.01 µM | Cc1cc(CNc2ccc(F)cc2C)c2nc(N3CCOCC3)cc(=O)n2c1
59 | 2 µM | Cc1ccc(Cc2cccc3c(=O)cc(N4CCOCC4)[nH]c23)cc1
60 | 0.2 µM | Cc1cc(N[C@H](C)c2ccccc2)c2nc(N3CCOCC3)cc(=O)n2c1
61 | 9.8 µM | Cc1cc(-c2ccccc2)c2nc(N3CCOCC3)cc(=O)n2c1
62 | 0.05 µM | Cc1cc(CNc2ccccc2)c2nc(N3CCOCC3)cc(=O)n2c1
63 | 0.05 µM | Cc1cc(NCc2ccccc2)c2nc(N3CCOCC3)cc(=O)n2c1
64 | 1 µM | Cc1ccc(Oc2cc(C)cn3c(=O)cc(N4CCOCC4)nc23)cc1
65 | 1 µM | O=c1cc(N2CCOCC2)nc2c(Oc3ccccc3)cccn12
66 | 1 µM | O=c1cc(N2CCOCC2)[nH]c2c(Cc3ccc(F)cc3)cccc12

Molecular target: PIK3CG (UniProt P48736)
Sequence (P48736 whole entry, looked up): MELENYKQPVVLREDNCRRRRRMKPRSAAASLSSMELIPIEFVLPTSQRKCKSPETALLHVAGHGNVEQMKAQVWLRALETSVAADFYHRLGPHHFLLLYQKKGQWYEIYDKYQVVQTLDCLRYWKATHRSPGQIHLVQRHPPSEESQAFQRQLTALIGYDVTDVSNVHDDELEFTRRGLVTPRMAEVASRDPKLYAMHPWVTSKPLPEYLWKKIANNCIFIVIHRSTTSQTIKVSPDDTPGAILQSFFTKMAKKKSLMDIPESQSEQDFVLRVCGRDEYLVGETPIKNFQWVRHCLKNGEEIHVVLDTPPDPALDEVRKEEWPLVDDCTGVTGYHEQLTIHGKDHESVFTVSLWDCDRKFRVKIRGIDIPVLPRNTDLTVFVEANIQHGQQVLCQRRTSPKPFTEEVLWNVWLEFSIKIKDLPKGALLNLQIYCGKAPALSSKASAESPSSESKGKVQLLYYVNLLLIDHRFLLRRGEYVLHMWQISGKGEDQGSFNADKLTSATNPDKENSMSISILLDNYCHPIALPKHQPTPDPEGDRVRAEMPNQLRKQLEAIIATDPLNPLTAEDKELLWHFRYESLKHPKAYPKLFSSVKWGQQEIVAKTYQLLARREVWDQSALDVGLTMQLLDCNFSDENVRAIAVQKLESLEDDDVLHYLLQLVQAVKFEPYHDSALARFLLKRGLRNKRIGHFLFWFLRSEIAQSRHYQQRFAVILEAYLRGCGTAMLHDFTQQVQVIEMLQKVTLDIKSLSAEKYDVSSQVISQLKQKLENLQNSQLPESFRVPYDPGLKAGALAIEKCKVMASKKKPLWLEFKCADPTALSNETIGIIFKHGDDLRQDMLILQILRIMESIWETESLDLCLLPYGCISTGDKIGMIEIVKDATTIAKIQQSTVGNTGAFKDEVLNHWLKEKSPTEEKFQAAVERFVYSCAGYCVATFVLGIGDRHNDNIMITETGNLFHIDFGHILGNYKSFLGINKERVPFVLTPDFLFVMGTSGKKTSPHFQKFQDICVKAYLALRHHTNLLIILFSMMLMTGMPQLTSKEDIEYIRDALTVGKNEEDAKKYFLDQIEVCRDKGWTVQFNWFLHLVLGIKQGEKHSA
Experiment: PIK3-gamma Enzyme Assay

Row | IC50 | Compound
67 | 2 µM | O=c1cc(N2CCOCC2)[nH]c2c(OCc3ccccc3)cccc12
